Patent US11229680B2, “Autophagy inhibitors” (The Hong Kong University of Science and Technology, priority 2017, dated 2022)
Where “and” joins values, the source holds several entries; their conditions need not be identical. Equal values may be shown once.

What was measured:
LC3s (LC3A, LC3B, LC3C) [1] = settings: recently identified LC3 binding sequence (Cheng et al., 2016; Olsvik et al., 2015); cited from earlier work
[2] = tested on: GABARAP-positive puncta in COS7 cells; assay: GABARAP-positive puncta in starved COS7 cells; assay type: cell-based; settings: COS7 cells over-expressing mCherry-tagged peptide, nutrients deprivation
Description: (§1) We used the well-established cultured COS7 cells for assessing autophagy inhibitions by the AnkB/G LIR peptides over-expressed in the cells. We quantified the numbers of endogenous LC3- or GABARAP-positive puncta, which represent LC3 or GABARAP-containing autophagic structures, as readouts to quantify autophagy inhibitions (Klionsky et al., 2016; Mizushima et al., 2010). After nutrients deprivation, obvious accumulations of LC3- or GABARAP-positive puncta could be observed in cells over-expressing mCherry only, indicating induction of autophagy by starvation (FIG. 6C6&E6). […] In contrast, expression of the mCherry-AnkB WR peptide had no impact on the LC3- or GABARAP-puncta numbers (i.e. with the same puncta numbers as expressing the mCherry vector control; FIG. 6C-F).

LC3s (LC3A, LC3B, LC3C) [3] = assay: ITC binding to LC3s; design: species or system human; settings: LC3A, LC3B, LC3C
[4] = tested on: LC3s (LC3A, LC3B, LC3C) (Homo sapiens); assay: ITC binding to LC3s
SQST-1::GFP = SQST-1::GFP aggregate accumulation in C. elegans expressing the peptides; assay type: in vivo
Description: We next determined whether the AnkB WT peptide blocks autophagy in C. elegans. Autophagy is required for degradation of a variety of protein substrates, including the C. elegans p62 homolog SQST-1 during development (Tian et al., 2010). In the wild type animals, SQST-1::GFP is weakly expressed and diffusely localized in the cytoplasm, while numerous SQST-1 aggregates accumulate in autophagy mutants (Tian et al., 2010). The AnkB WT peptide fused with the Cherry reporter (Cherry::AnkB WT) or Cherry::AnkB WR was expressed under the control of the nfya-1 promoter, which is expressed ubiquitously from the embryonic to adult stages. The expression plasmids were injected into animals carrying integrated SQST-1::GFP reporter (bpIs151) and transgenic lines were obtained and analyzed.
Similarly, we also tested the blocking effect of AnkG peptides in C. elegans. […] This observation is somewhat different from that in mammalian heterologous cells. This may be explained by the different roles of the two families in different organisms. In mammal, p62 degradation is dependent on LC3 but not GABARAP (Maruyama et al., 2014), so blocking GABARAP binding has minimal effect on p62 degradation. However, in C. elegans, LGG-1 acts upstream to LGG-2 (Manil-Segalen et al., 2014; Wu et al., 2015), so blocking either of them will lead to defect in SQST-1 degradation.
Although a large collection of autophagy mutants were isolated from genetic screens (Tian et al., 2010), assays to inhibit autophagy activity in a spatiotemporal manner are not available. We investigated whether the AnkB peptide can block autophagy in a tissue- and temporal-specific manner. The AnkB peptide was expressed under the control of tissue-specific promoters, including the promoter of myo-3 for body wall muscle cells, y37A1B.5 for hypodermal cells and vha-6 for intestinal cells. The expression constructs were injected into animals carrying the corresponding tissue-specific SQST-1::GFP expression integrated lines.
We also examined whether the AnkB peptide can impair autophagy in a temporal control manner. The expression of AnkB WT was driven by the promoter of col-19, which is expressed in hypodermal cells from the young adult stage onwards.

[5] = tested on: LC3-positive puncta in COS7 cells; assay: LC3-positive puncta in starved COS7 cells; assay type: cell-based; settings: COS7 cells over-expressing mCherry-tagged peptide, nutrients deprivation
Description: as §1

LGG-2 = biological target: T1, LGG-2 (Caenorhabditis elegans, UniProt Q23536); assay: ITC binding to purified LGG-2; design: species or system C. elegans
T1 sequence (Q23536 1-130): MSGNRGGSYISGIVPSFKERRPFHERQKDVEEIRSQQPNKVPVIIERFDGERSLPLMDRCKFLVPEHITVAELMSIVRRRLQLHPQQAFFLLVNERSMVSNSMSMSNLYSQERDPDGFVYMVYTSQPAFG
Description: (§2) C. elegans provides an ideal platform to study autophagy and especially to investigate roles of different members of Atg8 in autophagy, because worms contain both GABARAP and LC3 subfamily Atg8s and yet simple enough with one gene for each subfamily (worm lgg-1 and lgg-2 are […] of GABARAP and LC3, respectively). It has also been shown earlier on that lgg-1 and lgg-2 act non-redundantly in autophagy (Wu et al., 2015). Prior to performing autophagy assays in worms, we measured the bindings of various AnkB/G LIR peptides to purified LGG-1 and LGG-2 using the same method as we have described for FIGS. 1&3.

LGG-1 = LGG-1 (Caenorhabditis elegans, UniProt Q09490); assay: ITC binding to purified LGG-1; design: species or system C. elegans
Sequence of LGG-1 (Q09490 1-116 limits assumed): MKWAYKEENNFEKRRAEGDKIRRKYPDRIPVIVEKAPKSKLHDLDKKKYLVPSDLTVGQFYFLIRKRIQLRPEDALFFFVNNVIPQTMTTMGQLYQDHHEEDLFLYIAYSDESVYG
Description: as §2

GABARAP = assay: ITC binding to GABARAP; design: species or system human
[6] = tested on: p62-positive puncta in COS7 cells; assay: p62-positive puncta in starved COS7 cells; assay type: cell-based; settings: starvation; for p62-positive puncta versus mCherry vector control: COS7 cells expressing mCherry-tagged peptide
Description: We further quantified the level of p62, one of the best studied selective autophagy substrates, to monitor the autophagic flux in COS7 cells expressing various AnkB/G LIR peptides under the starvation condition (Klionsky et al., 2016; Mizushima et al., 2010). Upon autophagy induction, p62 forms aggregates via its LIR motif-mediated interactions to Atg8s and subsequent incorporation into autophagosomes (Bjorkoy et al., 2005; Pankiv et al., 2007). Only a relatively low and steady level of p62 aggregates is formed if autophagy flux is normal (i.e. p62-positive autophagosomes are steadily cleared by fusing with lysosomes; (Bjorkoy et al., 2005)), and this is indeed the case when cells were expressed with the mCherry vector control (FIG. 7F). […] This is consistent with a previous siRNA-based study showing that knockdown of LC3 but not GABARAP causes p62 accumulation in COS7 cells (Maruyama et al., 2014). Taken together, the above cell-based assays reinforce our earlier conclusion derived from biochemical and structural studies, that the AnkB WT peptide can function as potent autophagy inhibitor by targeting all members of the Atg8 family and the AnkG WT or ER peptides can selectively target the GABARAPs and spare the LC3s.

[7] = tested on: GFP-RFP-LC3B puncta in COS7 cells; assay: Autophagosome marker co-localization in COS7 cells co-transfected with GFP-RFP-LC3B; assay type: cell-based; settings: Myc tagged peptide, low expression level
Description: We next tried to explore the potential applications of the Ank-derived peptides as autophagosome markers. The COS7 cells were co-transfected with GFP-RFP-LC3B and Myc tagged AnkB WT or AnkB WR peptides. […] LC3B are mainly localized on the autophagosome as vast majority of the puncta are both green and red (FIG. 11A).

C. elegans [8] = assay: C. elegans life span; assay type: in vivo
Description: Autophagy is known to regulate the adult worm aging process. […] The autophagy defect caused by AnkB was weaker than that in autophagy mutants.

C. elegans [9] = assay: C. elegans hatching and development; assay type: in vivo; settings: Pnfya-1::Cherry fusion
Description: Autophagy plays critical roles in various physiological processes occurring during development or in adult C. elegans (Zhang et al., 2015). Fewer autophagy mutants develop into larvae. […] 60.8% embryos expressing the AnkB WT peptide hatched, compared to 96.9% of embryos expressing AnkB WR (FIG. 8G). Autophagy mutants also grow slowly. […] Thus, the AnkB WT peptide blocks autophagy during C. elegans development.

[10] = tested on: all members of the Atg8 family; assay: ITC binding to all members of the Atg8 family; design: species or system human
Description: The 440 kD AnkB and 480 kD AnkG both contain a giant exon encoding several thousand amino acid residues, though the homology between the two giant exon coding sequences is very limited. The 440 kD AnkB is also a neuronal specific isoform, and is mainly expressed in unmyelinated/premyelinated axons.
Thus, we will not describe the overall structures of the two complexes any further, except to note that the AnkB LIR also contains a well-defined C-helix extension following the LIR core motif.

Molecule: FYCO1 LIR: recently identified LC3 binding sequence from FYCO1 with a one-turn helix extension (DDAVFDIITDEELCQIQESGSSLPET; FYCO1 recombinant human sequence, prepared in lab)
- binding to LC3 compared with bindings of AnkB LIR to Atg8 (LC3s (LC3A, LC3B, LC3C) [1]): significantly weaker

Molecule: CC[C@H](C)[C@H](NC(=O)[C@H](CCC(=O)O)NC(=O)[C@H](CCC(=O)O)NC(=O)[C@H](CO)NC(=O)[C@H](CO)NC(=O)[C@H](Cc1ccccc1)NC(=O)[C@H](CCC(=O)O)NC(=O)[C@@H](NC(=O)[C@H](Cc1c[nH]c2ccccc12)NC(=O)[C@H](CC(=O)O)NC(=O)[C@H](CC(=O)O)NC(=O)[C@H](CCC(=O)O)NC(=O)[C@@H]1CCCN1)[C@@H](C)O)C(=O)N[C@@H](CCCNC(=N)N)C(=O)N[C@@H](CCC(=O)O)C(=O)N[C@@H](C)C(=O)N[C@@H](CCCNC(=N)N)C(=O)N[C@@H](CCC(N)=O)C(=O)N[C@@H](C)C(=O)N[C@@H](C)C(=O)N[C@@H](C)C(=O)N[C@@H](CO)C(=O)N[C@@H](Cc1c[nH]cn1)C(=O)N[C@@H](C)C(=O)N1CCC[C@H]1C(=O)N[C@@H](CO)C(=O)O [AnkG LIR]
- GABARAP-positive puncta number [2]: potently inhibited
- Kd values of binding to the LC3s (LC3s (LC3A, LC3B, LC3C) [3]): hundreds to thousands
- binding to LC3 (in words) [4]: much weaker affinity than to GABARAPs
- SQST-1::GFP aggregates (SQST-1::GFP; Cherry fusion, hyp7 promoter, epidermis, embryonic to adult stages): caused accumulation of SQST-1::GFP aggregates
- SQST-1::GFP aggregates (SQST-1::GFP; Phyp7::mCherry::AnkG peptides, hypodermis, L4 larvae): a large number of SQST-1::GFP aggregates accumulate
- SQST-1::GFP aggregates (SQST-1::GFP; mCherry::AnkG peptides, embryonic stage (FIG. 10B-D)): accumulation of the SQST-1::GFP aggregates
- LC3-positive puncta number [5]: only modestly reduced
- weaker affinity towards LGG-2 than LGG-1 (LGG-2): about 130 fold
- binding to LGG-1 (in words) (LGG-1): binds strongly
- binding to GABARAP stronger than almost all reported bindings between LIR motifs and Atg8s (GABARAP; ITC): ~1000 fold
- Kd (GABARAP; isothermal titration calorimetry (ITC)): ~2.6 nM and 2.6 nM
- p62-positive puncta versus mCherry vector control [6]: obviously increased
- p62 puncta increase compared with AnkB WT peptide ([6]; COS7 cells): significantly lower

Molecule: AnkB W1592R: AnkB LIR with Trp1592 substituted by Arg; control for functional studies (VEEERVIVSDEEIEEARQKAPLEITEY; AnkB W1592R human recombinant peptide, prepared in the lab)
- GABARAP-positive puncta number [2]: no impact
- localization relative to GFP-RFP-LC3B dual-color (autophagosome) puncta [7]: diffused in the cells
- Median lifespan (C. elegans [8]; Pmyo-3::ch:: fusion (muscle)): 18.72 days
- Median lifespan (C. elegans [8]; Pnfya-1::ch:: fusion (ubiquitous)): 19.15 days
- Median lifespan (C. elegans [8]; Pvha-6::ch:: fusion (intestine)): 18.13 days
- Median lifespan (C. elegans [8]; Py37a1b.5::ch:: fusion (hypodermal cells)): 18.63 days
- embryos hatched (hatch rate) (C. elegans [9]): 96.9%
- SQST-1::GFP aggregates (SQST-1::GFP; Cherry fusion, FIG. 8, embryo): no SQST-1::GFP aggregates
- SQST-1::GFP aggregates (SQST-1::GFP; Cherry fusion, FIG. 8, larvae): no SQST-1::GFP aggregates
- SQST-1::GFP aggregates (SQST-1::GFP; Cherry fusion, nfya-1 promoter (ubiquitous), multiple tissues, embryonic to adult stages): no SQST-1::GFP aggregates were formed
- SQST-1::GFP aggregates (SQST-1::GFP; mCherry fusion, hypodermal cells, embryo (FIG. 9)): no SQST-1::GFP aggregates
- SQST-1::GFP aggregates (SQST-1::GFP; mCherry fusion, hypodermis, L4 larvae (FIG. 9)): no SQST-1::GFP aggregates
- SQST-1::GFP aggregates (SQST-1::GFP; myo-3 promoter, muscle cells, L4 larvae): no SQST-1::GFP aggregates
- SQST-1::GFP aggregates (SQST-1::GFP; myo-3 promoter, muscle, embryo): no SQST-1::GFP
- SQST-1::GFP aggregates (SQST-1::GFP; tissue-specific promoters myo-3, y37A1B.5, vha-6, embryonic to adult stages): no accumulation
- SQST-1::GFP aggregates (SQST-1::GFP; vha-6 promoter, intestine cells, embryo): no SQST-1::GFP aggregates
- SQST-1::GFP aggregates (SQST-1::GFP; vha-6 promoter, intestine cells, larvae (FIG. 10S, 10T)): no SQST-1::GFP aggregates
- binding to Atg8 family members (in words) [10]: dramatically decreased
- LC3-positive puncta number [5]: no impact
- binding to LGG-2 (in words) (LGG-2; purified LGG-2): eliminated the bindings
- binding to LGG-1 (in words) (LGG-1): eliminated the bindings
- p62-positive puncta versus mCherry vector control [6]: neither of the AnkB/G WR peptides could induce p62-positive puncta increase
